Reference: patent US5744462A, “Steroids useful as anti-cancer and anti-obesity agents” (Research Corporation Technologies, Inc., priority 1995, dated 1998)
“And” between values parts separate entries of the source, which are not always exact repeats. Equal values may be shown once. “Also recorded” adds a separate entry of the source.

What was measured:
mouse skin DNA = test: (3H) DMBA binding to skin DNA; assay type: in vivo, mouse (A/J); conditions: for effect on 3H-DMBA binding to skin DNA: oral, mice, doses well below 400 mg/kg
[1] = tested on: mouse epidermal DNA (TPA stimulated 3H-thymidine incorporation); test: TPA stimulation of 3H-thymidine incorporation in epidermis, topical steroid; assay type: in vivo, mouse (A/J); conditions: no steroid 66, TPA alone 174
Protocol: (§1) Tumor promoters, such as TPA, stimulate hyperplasia and DNA synthesis when applied to the skin, and it is believed that this stimulation is an important step in the enhancement of tumorigenesis.
Incorporation of ^3 H-thymidine into A/J mouse epidermal DNA was determined as described in Pashko, L. L., Schwartz, A. G., Abou-Gharbia, M. and Swern, D. (1981), Inhibition of DNA synthesis in mouse epidermis and breast epithelium by dehydroepiandrosterone and related steroids, Carcinogenesis, 2, 717-721. Values are mean±SD for 3 separately treated mice in each group 20 hours after TPA application. DHEA or testosterone was added topically in 0.2 ml acetone one hour before TPA addition.

[2] = Body weight and food consumption in the DMBA binding experiment; assay type: in vivo, mouse; conditions: two weeks of feeding
Protocol: Binding of [^3 H]DMBA to mouse skin DNA was determined as described in Pashko, L. L., and Schwartz, A. G. (1983), Effect of food restriction, dehydroepiandrosterone, or obesity on the binding of ^3 H-7,12-dimethylbenz(a)anthracene to mouse skin DNA, J. Gerontol., 38, 8-12. Values are mean±SD for 3 individual determinations, with pooled tissue from 2 mice used for each determination. DHEA or testosterone (400 ug in 0.2 ml acetone) was applied to the skin one hour before [^3 H]DMBA. The mean weight of the food restricted mice was 18.5±1.0 gm, n=6, of the ad libitum fed, 27.4±1.0 gm, n=6, of the ad libitum fed treated with DHEA, 28.2±0.9 gm, n=6, and of the ad libitum fed treated with testosterone, 28.3±0.9 gm, n=6, following two weeks of feeding. The average food consumed was, in gm/mouse/day, 2.2, 3.8, 3.8 and 4.0 for the food restricted, ad libitum fed, ad libitum fed plus DHEA, and ad libitum fed plus testosterone groups, respectively.

[3] = tested on: mouse epidermis (TPA stimulated 3H-thymidine incorporation); test: TPA stimulation of 3H-thymidine incorporation in mouse epidermis, oral steroid; assay type: in vivo, mouse (male ICR)
Protocol: as §1
Male ICR mice were orally intubated with steroid suspended in sesame oil (0.5 ml/mouse) at the indicated dose. Mice not receiving steroid were given sesame oil alone. One hour later mice received topical application of TPA and 20 hours later the rate of ^3 H-thymidine incorporation into the epidermis was determined as described in Pashko, L. L., Schwartz, A. G., Abou-Gharbia, M., and Swern, D. (1981), Inhibition of DNA synthesis in mouse epidermis and breast epithelium by dehydroepiandrosterone and related steroids, Carcinogenesis, 2,-717-721.
Experimental conditions are the same as in Table 3.

[4] = molecular target: purified bovine adrenal G6PDH (Bos taurus, UniProt F1MMK2); test: G6PDH inhibition test; assay type: biochemical; conditions: individual determinations; for inhibition at 10 µM / inhibition at 1 µM / inhibition at 0.1 µM: read-out: Percent Inhibition of G6PDH
purified bovine adrenal G6PDH, sequence (F1MMK2 31-70): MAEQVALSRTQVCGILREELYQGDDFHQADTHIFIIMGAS
purified bovine adrenal G6PDH, sequence (F1MMK2 101-575): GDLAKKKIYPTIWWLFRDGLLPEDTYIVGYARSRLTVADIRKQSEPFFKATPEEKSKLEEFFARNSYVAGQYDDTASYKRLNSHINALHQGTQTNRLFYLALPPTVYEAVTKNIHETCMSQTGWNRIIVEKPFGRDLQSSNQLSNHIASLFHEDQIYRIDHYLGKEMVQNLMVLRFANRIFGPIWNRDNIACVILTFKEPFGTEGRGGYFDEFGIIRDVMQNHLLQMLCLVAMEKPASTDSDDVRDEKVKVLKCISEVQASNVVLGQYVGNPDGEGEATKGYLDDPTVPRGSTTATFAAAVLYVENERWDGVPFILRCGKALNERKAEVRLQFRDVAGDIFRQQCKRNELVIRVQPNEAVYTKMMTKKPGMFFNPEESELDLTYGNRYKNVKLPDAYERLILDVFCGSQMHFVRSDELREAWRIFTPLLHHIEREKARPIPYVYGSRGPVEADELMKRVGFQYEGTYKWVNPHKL
Description: The compound listed below are screened as inhibitors of purified bovine adrenal G6PDH activity as one predictor of cancer preventive action. The assay for testing the inhibition of purified bovine adrenal G6PDH is according to the procedure by Oertell, G. W. and Rebelein, I. in Biochem. Biophys. Acta, 184, 459-460 (1969).

[5] = Anti-obesity action, body weight, male A/J mice; assay type: in vivo, mouse (male A/J); conditions: 0.45% in diet
Protocol: Male A/J (5 weeks old) mice were obtained from the
Jackson Laboratory and were housed in polycarbonate cages (6
mice/cage) in animal quarters maintained at 24 ± 1° C. with 12
hours of light and 12 hours of darkness each day. One week
after arrival, the mice were placed on a diet containing
either DHEA, 8353, or without steroid. Animals were weighed

[6] = Estrogenic and anti-estrogenic activity, uterine weight; assay type: in vivo, rat (female CD); conditions: 60 mg/kg s.c. for 3 days; control 2.02 ± 0.28; DHEA significantly greater than control, p < .001
Protocol: Estrogenic and Anti-Estrogenic Activity
Female CD rats, 26-27 days old, were injected subcutaneously for 3 days with one of the compounds of the present invention at 60 mg/kg in propylene glycol. Controls received propylene glycol alone. On the 4th day, the rats were killed and the uteri were dissected out and weighed.

[7] = in vivo; cited from earlier work
liver catalase = test: Liver catalase activity after three weeks of diet treatment; assay type: in vivo, mouse (female Balb/c); conditions: for CATALASE ACTIVITY / catalase activity, in words: 0.25% of diet; for CATALASE ACTIVITY: control 31.1 ± 6.7, DHEA p < 0.05, clofibrate p < 0.001 vs control; for catalase activity, in words: mice
Protocol: (§2) Female Balb/c mice were housed in polycarbonate cages (6/mice/cage) in animal quarters maintained at 24°±1° C. with 12 hours of light and 12 hours of dark each day. The mice were placed on a diet containing either DHEA, 8354, A, B clofibrate or with no addition. Three weeks later the mice were killed, the livers were perfused with cold saline, weighed, and 5% liver homogenates were prepared for the determination of catalase activity by the spectrophotometric method of Luck (H. Luck, in Method in Enzyme Analysis, H. U. Bergmeyer, Ed. (Verlag Chemie, Weinheim/Bergstrasse, Germany, 1965)). Total protein was measured by the method of Lowry, et al. (O. H. Lowry, N. J. Rosebrough, A. L. Farr, R. J. Randall, J. Biol. Chem., 193, 265 (1951)).

[8] = Estrogenic / androgenic side-effects, general statements; conditions: in vivo
[9] = Liver weight after three weeks of diet treatment; assay type: in vivo, mouse (female Balb/c); conditions: 0.25% of diet; for LIVER WEIGHT: control 0.057 ± 0.006, DHEA p < 0.05, clofibrate p < 0.002 vs control; for liver weight, in words: mice
Protocol: as §2

[10] = Table 3, oral 25 mg/kg, no steroid 70.2, TPA alone 154
[11] = Table 3, oral 50 mg/kg, no steroid 70.2, TPA alone 154
[12] = Table 3, oral 100 mg/kg, no steroid 70.2, TPA alone 154

Compound: C[C@]12CC[C@H]3[C@@H](CCC4=CC(=O)CC[C@@]43C)[C@@H]1CC[C@@H]2O [testosterone]
- SPECIFIC ACTIVITY, (3H) DMBA binding to skin DNA (mouse skin DNA; 400 ug topical one hour before DMBA, ad libitum fed 116 ± 5.2): 164 ± 8.4 cpm/ug DNA
- effect on rate of binding of 3H-DMBA to skin DNA (mouse skin DNA; topical, in words (Table 4)): without inhibitory effect
- SPECIFIC ACTIVITY, TPA stimulated 3H-thymidine incorporation ([1]; topical 100 ug): 128 ± 13 cpm/ug DNA
- SPECIFIC ACTIVITY, TPA stimulated 3H-thymidine incorporation ([1]; topical 400 ug): 142 ± 5.9 cpm/ug DNA
- mean body weight ([2]; topical 400 ug, ad libitum fed 27.4±1.0): 28.3±0.9 gm
- average food consumed ([2]; ad libitum fed 3.8): 4.0 gm/mouse/day

Compound: C[C@]12CCCCC1=CC[C@@H]1[C@@H]2CC[C@]2(C)C(=O)[C@H](O)C[C@@H]12 [Compound 8353]
- SPECIFIC ACTIVITY, TPA stimulated 3H-thymidine incorporation ([3]; Table 8, 75 mg/kg, p.o.): 15.9 ± 2.4 cpm/ug DNA
- SPECIFIC ACTIVITY, TPA stimulated 3H-thymidine incorporation ([3]; Table 8, 150 mg/kg, p.o.): 14.0 ± 1.1 cpm/ug DNA
- SPECIFIC ACTIVITY, TPA stimulated 3H-thymidine incorporation ([3]; Table 8, 200 mg/kg, p.o.): 14.3 ± 1.7 cpm/ug DNA
- inhibition at 10 µM ([4]; 10^-5 M): 77%
- Percent Inhibition of G6PDH ([4]; 10^-6 M): 36% and 29% and 38%
- inhibition at 1 µM ([4]; 10^-6 M): 30%
- mean weekly weight ± S.D. ([5]; week 0, control 23 ± 1.5): 23.3 ± 1.6 grams
- mean weekly weight ± S.D. ([5]; week 1, control 25.0 ± 1.6): 21.1 ± 1.4 grams
- mean weekly weight ± S.D. ([5]; week 2, control 27.0 ± 1.6): 21.9 ± 1.0 grams
- mean weekly weight ± S.D. ([5]; week 3, control 27.3 ± 1.6): 23.6 ± 1.5 grams
- mean weekly weight ± S.D. ([5]; week 4, control 27.5 ± 1.9): 23.5 ± 1.5 grams
- effect on 3H-DMBA binding to skin DNA (mouse skin DNA): inhibit ^3 H-DMBA binding to skin DNA
- Mean Uterine Weight ± S.D. [6]: 2.15 ± 0.17 mg/100 gm body weight

Compound: C[C@@H]1C[C@H]2[C@@H]3CC=C4CCCC[C@]4(C)[C@H]3CC[C@]2(C)C1=O [C]
- Percent Inhibition of G6PDH ([4]; 10^-5 M): 52%
- inhibition at 10 µM ([4]; 10^-5 M): 54%
- Percent Inhibition of G6PDH ([4]; 10^-6 M): 31%
- inhibition at 1 µM ([4]; 10^-6 M): 33%
- Percent Inhibition of G6PDH ([4]; 10^-7 M): 24%
- inhibition at 0.1 µM ([4]; 10^-7 M): 20%

Compound: Clc1ccc(C(c2ccc(Cl)cc2)C(Cl)(Cl)Cl)cc1 [DDT]
- effect on liver (type of hepatomegaly) [7]: stimulate proliferation of smooth endoplasmic reticulum in liver cells and induce microsomal drug metabolizing enzymes

Compound: C[C@]12CCCCC1=CC[C@@H]1[C@@H]2CC[C@]2(C)C(=O)[C@](C)(F)C[C@@H]12 [F]
- inhibition at 10 µM ([4]; 10^-5 M): 82%
- Percent Inhibition of G6PDH ([4]; 10^-6 M): 69%
- inhibition at 1 µM ([4]; 10^-6 M): 66%
- Percent Inhibition of G6PDH ([4]; 10^-7 M): 34%
- inhibition at 0.1 µM ([4]; 10^-7 M): 28%

Compound: C[C@]12CCCC[C@@H]1CC[C@@H]1[C@@H]2CC[C@]2(C)C(=O)[C@H](O)C[C@@H]12 [A]
- SPECIFIC ACTIVITY, TPA stimulated 3H-thymidine incorporation [3, 10]: 77.4 ± 10.4 cpm/ug DNA
- SPECIFIC ACTIVITY, TPA stimulated 3H-thymidine incorporation [3, 11]: 35.2 ± 1.8 cpm/ug DNA
- SPECIFIC ACTIVITY, TPA stimulated 3H-thymidine incorporation [3, 12]: 8.1 ± 4.1 cpm/ug DNA
- CATALASE ACTIVITY (liver catalase): 42.3 ± 7.2 Units per mg protein
- catalase activity, in words (liver catalase): no effect on liver weight or catalase activity
- estrogenic and androgenic side-effects [8]: lacking the estrogenic and androgenic side-effects of DHEA
- Percent Inhibition of G6PDH ([4]; 10^-5 M): 92% and 91%
- inhibition at 10 µM ([4]; 10^-5 M): 94%
- inhibition at 1 µM ([4]; 10^-6 M): 72%
- Percent Inhibition of G6PDH ([4]; 10^-7 M): 25%
- inhibition at 0.1 µM ([4]; 10^-7 M): 17%
- effect on 3H-DMBA binding to skin DNA (mouse skin DNA): inhibit ^3 H-DMBA binding to skin DNA
- LIVER WEIGHT [9]: 0.058 ± 0.004 gm/gm body weight
- liver weight, in words [9]: no effect on liver weight; also recorded: neither increased liver weight

Compound: CCOC(=O)C(C)(C)Oc1ccc(Cl)cc1 [Clofibrate, clofibrate, reference compound]
- CATALASE ACTIVITY (liver catalase): 92.1 ± 8.9 Units per mg protein
- increase in liver catalase specific activity (liver catalase; 0.25%, vs control): threefold
- catalase activity, in words (liver catalase): stimulated catalase activity
- LIVER WEIGHT [9]: 0.084 ± 0.006 gm/gm body weight
- liver weight, in words [9]: increased liver weight; also recorded: hepatomegaly
- effect on liver (type of hepatomegaly) [7]: Typical peroxisome proliferators

Compound: CCC1(c2ccccc2)C(=O)NC(=O)NC1=O [phenobarbital]
- effect on liver (type of hepatomegaly) [7]: stimulate proliferation of smooth endoplasmic reticulum in liver cells and induce microsomal drug metabolizing enzymes

Compound: C[C@H]1C[C@H]2[C@@H]3CC=C4CCCC[C@]4(C)[C@H]3CC[C@]2(C)C1=O [D]
- Percent Inhibition of G6PDH ([4]; 10^-5 M): 47%
- inhibition at 10 µM ([4]; 10^-5 M): 44%
- Percent Inhibition of G6PDH ([4]; 10^-6 M): 20%
- inhibition at 1 µM ([4]; 10^-6 M): 13%

Compound: C[C@]12CCCC[C@@H]1CC[C@@H]1[C@@H]2CC[C@]2(C)C(=O)[C@H](F)C[C@@H]12 [B]
- SPECIFIC ACTIVITY, TPA stimulated 3H-thymidine incorporation [3, 10]: 66.1 ± 9.8 cpm/ug DNA
- SPECIFIC ACTIVITY, TPA stimulated 3H-thymidine incorporation [3, 11]: 25.6 ± 4.0 cpm/ug DNA
- SPECIFIC ACTIVITY, TPA stimulated 3H-thymidine incorporation [3, 12]: 7.2 ± 3.8 cpm/ug DNA
- CATALASE ACTIVITY (liver catalase): 32.2 ± 6.0 Units per mg protein
- catalase activity, in words (liver catalase): no effect on liver weight or catalase activity
- estrogenic and androgenic side-effects [8]: lacking the estrogenic and androgenic side-effects of DHEA
- inhibition at 10 µM ([4]; 10^-5 M): 96%
- Percent Inhibition of G6PDH ([4]; 10^-6 M): 84%
- inhibition at 1 µM ([4]; 10^-6 M): 82%
- inhibition at 0.1 µM ([4]; 10^-7 M): 36%
- effect on 3H-DMBA binding to skin DNA (mouse skin DNA): inhibit ^3 H-DMBA binding to skin DNA
- LIVER WEIGHT [9]: 0.061 ± 0.002 gm/gm body weight
- liver weight, in words [9]: no effect on liver weight; also recorded: neither increased liver weight
